Measured values from patent US20250197372A1 (priority 2020, published 2025).

Tests used:
Format in all cases: biochemical
[1] = biological target: T1, recombinant alpha-glucosidase II (murine full-length glucosidase II, alpha and beta subunits, Glu 2) (Mus musculus, UniProt Q8BHN3); test: Alpha-glucosidase II assay (4-methylumbelliferyl-alpha-D-pyranoside substrate, fluorescence); conditions: Glucosidase 2; read-out: Glu2 IC50
T1 construct: made in house; host or cells: HEK-293T cells transduced with BacMam viruses (75% alpha, 25% beta); protein harvested from culture supernatant
T1 sequence (O08795 15-521): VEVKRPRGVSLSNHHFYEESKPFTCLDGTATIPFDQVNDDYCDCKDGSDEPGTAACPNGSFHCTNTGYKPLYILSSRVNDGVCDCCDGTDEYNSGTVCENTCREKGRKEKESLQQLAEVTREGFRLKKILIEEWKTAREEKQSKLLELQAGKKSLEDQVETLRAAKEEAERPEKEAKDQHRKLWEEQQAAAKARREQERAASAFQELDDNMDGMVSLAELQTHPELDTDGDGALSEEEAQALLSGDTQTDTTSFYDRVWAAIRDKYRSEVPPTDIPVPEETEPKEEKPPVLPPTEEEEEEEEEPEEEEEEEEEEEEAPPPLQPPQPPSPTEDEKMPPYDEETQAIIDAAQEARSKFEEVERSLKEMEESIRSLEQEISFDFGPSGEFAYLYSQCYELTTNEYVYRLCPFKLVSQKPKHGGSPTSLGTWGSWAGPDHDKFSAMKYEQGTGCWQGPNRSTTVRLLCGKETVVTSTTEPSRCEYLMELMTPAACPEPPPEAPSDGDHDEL
T1 sequence (Q8BHN3 33-944): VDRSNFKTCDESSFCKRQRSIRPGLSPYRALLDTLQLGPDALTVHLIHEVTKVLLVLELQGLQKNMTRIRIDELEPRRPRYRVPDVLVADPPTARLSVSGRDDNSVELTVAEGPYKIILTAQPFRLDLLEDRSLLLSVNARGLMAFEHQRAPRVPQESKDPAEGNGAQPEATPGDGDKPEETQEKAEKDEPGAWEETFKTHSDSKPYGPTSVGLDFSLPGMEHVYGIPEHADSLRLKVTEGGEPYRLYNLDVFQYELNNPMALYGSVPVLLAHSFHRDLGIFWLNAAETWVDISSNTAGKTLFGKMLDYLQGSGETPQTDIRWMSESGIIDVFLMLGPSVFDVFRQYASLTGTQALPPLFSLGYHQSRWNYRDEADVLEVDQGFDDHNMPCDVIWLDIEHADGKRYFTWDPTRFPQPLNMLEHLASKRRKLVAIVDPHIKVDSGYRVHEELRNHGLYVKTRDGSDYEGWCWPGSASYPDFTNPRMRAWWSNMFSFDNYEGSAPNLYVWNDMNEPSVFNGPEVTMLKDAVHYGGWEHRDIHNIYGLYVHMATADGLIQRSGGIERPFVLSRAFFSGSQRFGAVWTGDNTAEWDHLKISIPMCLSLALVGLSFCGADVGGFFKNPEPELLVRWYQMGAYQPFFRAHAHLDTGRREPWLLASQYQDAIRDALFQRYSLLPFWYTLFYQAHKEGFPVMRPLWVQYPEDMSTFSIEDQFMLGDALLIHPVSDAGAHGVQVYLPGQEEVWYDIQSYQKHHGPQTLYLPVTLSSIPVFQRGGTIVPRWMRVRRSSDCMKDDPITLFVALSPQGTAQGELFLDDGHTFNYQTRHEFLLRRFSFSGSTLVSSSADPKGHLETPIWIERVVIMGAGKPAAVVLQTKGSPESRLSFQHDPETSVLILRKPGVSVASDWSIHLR

[2] = biological target: recombinant human GAA (acid alpha-glucosidase) (Homo sapiens, UniProt P10253); test: Acid alpha-glucosidase (GAA) assay (4-methylumbelliferyl-alpha-D-pyranoside substrate, fluorescence)
Outline: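 Recombinant human enzyme preincubated 60 min at 37 °C with compound dilutions, then 4-methylumbelliferyl-alpha-D-pyranoside substrate added for 20 min at 37 °C. Stopped with glycine/NaOH pH 10; methylumbelliferone fluorescence (ex 365, em 440 nm) versus untreated enzyme; IC50 by 4-PL fit.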

[3] = biological target: T2, recombinant human GBA (beta-glucocerebrosidase) (Homo sapiens, UniProt P04062); test: Beta-glucocerebrosidase (GBA, glucosylceramidase) assay (4-methylumbelliferyl-beta-D-pyranoside substrate, fluorescence)
T2 sequence (P04062 40-536): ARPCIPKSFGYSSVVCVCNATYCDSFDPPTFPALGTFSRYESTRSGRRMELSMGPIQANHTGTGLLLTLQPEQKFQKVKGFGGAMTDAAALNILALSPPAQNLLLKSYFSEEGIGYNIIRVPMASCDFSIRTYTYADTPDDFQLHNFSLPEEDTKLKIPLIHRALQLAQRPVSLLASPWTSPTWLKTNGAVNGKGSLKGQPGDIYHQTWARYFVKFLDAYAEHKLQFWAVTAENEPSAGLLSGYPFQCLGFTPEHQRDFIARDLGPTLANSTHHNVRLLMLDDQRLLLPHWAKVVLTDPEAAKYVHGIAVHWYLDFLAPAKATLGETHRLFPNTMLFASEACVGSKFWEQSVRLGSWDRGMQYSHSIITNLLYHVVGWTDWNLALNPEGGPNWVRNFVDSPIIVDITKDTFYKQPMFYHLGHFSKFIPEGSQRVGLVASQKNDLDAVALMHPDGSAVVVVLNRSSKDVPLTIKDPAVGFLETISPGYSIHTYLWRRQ
Outline: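 Recombinant human GBA preincubated with compound dilutions 60 min at 37 °C, then 4-methylumbelliferyl-beta-D-pyranoside added for 60 min at 37 °C. Stopped at pH 10 (glycine/NaOH); fluorescence ex 365/em 440 nm. IC50 from 4-PL fit of inhibition relative to untreated enzyme.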

[4] = biological target: rat maltase (partially purified alpha-glucosidase from intestinal rat powder); test: Intestinal alpha-glucosidase assay, maltose substrate (Glucose GO Kit)
Outline: (§1)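 Enzyme from intestinal rat powder, partially purified, is exposed to compound for 60 min at 37 °C. Disaccharide substrate (maltose or sucrose respectively) then reacts 30 min at 37 °C. Heat-stopped samples are assayed for glucose, and percent inhibition versus concentration gives IC50 via 4-PL.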

[5] = biological target: rat sucrase (partially purified alpha-glucosidase from intestinal rat powder) (Rattus norvegicus, UniProt P23739); test: Intestinal alpha-glucosidase assay, sucrose substrate (Glucose GO Kit)
Chain of rat sucrase (partially purified alpha-glucosidase from intestinal rat powder) (P23739 whole entry): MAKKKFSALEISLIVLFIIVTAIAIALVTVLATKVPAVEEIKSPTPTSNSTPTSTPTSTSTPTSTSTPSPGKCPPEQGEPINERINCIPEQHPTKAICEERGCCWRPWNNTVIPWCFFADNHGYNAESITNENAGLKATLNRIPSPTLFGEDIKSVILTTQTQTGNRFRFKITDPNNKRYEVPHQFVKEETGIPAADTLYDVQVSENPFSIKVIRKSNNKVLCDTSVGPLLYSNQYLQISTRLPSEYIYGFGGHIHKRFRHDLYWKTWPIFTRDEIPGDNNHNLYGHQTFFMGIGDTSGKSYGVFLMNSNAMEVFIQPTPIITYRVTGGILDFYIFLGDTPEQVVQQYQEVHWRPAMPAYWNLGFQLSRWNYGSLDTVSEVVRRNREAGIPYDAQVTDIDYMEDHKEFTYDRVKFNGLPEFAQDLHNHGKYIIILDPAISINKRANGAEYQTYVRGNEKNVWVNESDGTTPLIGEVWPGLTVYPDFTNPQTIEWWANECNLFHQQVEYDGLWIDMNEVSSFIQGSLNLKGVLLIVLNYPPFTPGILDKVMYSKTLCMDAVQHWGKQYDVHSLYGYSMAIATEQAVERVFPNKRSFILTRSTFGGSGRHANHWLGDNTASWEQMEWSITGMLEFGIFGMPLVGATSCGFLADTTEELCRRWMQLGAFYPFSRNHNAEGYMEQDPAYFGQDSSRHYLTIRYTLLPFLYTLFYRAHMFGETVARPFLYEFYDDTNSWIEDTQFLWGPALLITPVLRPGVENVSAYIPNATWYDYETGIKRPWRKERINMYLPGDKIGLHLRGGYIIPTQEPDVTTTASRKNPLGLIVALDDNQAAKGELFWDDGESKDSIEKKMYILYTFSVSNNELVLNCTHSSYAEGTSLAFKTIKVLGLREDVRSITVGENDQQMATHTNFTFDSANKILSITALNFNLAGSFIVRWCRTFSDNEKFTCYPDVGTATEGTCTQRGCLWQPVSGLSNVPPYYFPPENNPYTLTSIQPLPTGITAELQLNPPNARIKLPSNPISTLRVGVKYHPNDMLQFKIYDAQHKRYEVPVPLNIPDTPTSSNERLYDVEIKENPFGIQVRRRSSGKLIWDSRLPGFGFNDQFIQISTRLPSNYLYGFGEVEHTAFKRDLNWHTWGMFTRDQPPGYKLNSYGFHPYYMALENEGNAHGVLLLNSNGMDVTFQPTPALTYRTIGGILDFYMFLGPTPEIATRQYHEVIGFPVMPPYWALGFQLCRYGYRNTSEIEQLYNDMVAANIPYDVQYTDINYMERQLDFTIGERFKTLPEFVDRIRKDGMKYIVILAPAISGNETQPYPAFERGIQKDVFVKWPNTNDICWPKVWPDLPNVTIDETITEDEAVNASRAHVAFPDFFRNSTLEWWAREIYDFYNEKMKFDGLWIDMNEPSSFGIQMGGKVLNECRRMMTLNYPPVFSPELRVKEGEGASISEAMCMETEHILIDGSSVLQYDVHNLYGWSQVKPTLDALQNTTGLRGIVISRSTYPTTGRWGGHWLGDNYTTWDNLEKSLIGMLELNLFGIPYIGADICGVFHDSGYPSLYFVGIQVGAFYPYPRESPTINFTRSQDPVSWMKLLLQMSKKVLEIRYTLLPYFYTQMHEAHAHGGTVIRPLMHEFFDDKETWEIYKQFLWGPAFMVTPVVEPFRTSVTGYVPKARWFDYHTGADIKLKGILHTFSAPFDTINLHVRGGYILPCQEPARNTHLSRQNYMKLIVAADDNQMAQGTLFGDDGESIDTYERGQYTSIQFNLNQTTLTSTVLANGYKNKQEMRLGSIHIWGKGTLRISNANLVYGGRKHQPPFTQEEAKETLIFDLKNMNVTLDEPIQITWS
Outline: as §1

Row | SMILES | IC50 [1] [nM] | IC50 [2] [nM] | IC50 [3] [nM] | IC50 [4] [nM] | IC50 [5] [nM]
1 | O=[N+]([O-])c1cc(Br)ccc1NCc1ccc(CN2C[C@H](O)[C@@H](O)[C@H](O)[C@H]2CO)cc1 [Compound 1030, (2R,3R,4R,5S)-1-[(4-{[(4-bromo-2-nitrophenyl)amino]methyl}phenyl)methyl]-2-(hydroxymethyl)piperidine-3,4,5-triol] | < 1 | 135 | 32300 | < 1 | < 1
2 | Cc1cc(-c2ncccn2)ccc1NCCCCCCN1C[C@H](O)[C@@H](O)[C@H](O)[C@H]1CO [Compound 1233, (2R,3R,4R,5S)-2-(hydroxymethyl)-1-(6-{[2-methyl-4-(pyrimidin-2-yl)phenyl]amino}hexyl)piperidine-3,4,5-triol] | 23 | 1040 | 1310 | 32 | 130
3 | [N-]=[N+]=Nc1ccc(N2CCN(CCN3C[C@H](O)[C@@H](O)[C@H](O)[C@H]3CO)CC2)c([N+](=O)[O-])c1 [Compound 1254, (2R,3R,4R,5S)-1-{2-[4-(4-azido-2-nitrophenyl)piperazin-1-yl]ethyl}-2-(hydroxymethyl)piperidine-3,4,5-triol] | 865 | > 100000 | > 100000 | 1210 | 6530
4 | COc1ccc(-c2ccc(CN3C[C@H](O)[C@@H](O)[C@H](O)[C@H]3CO)cc2)cc1 [Compound 1306, (2R,3R,4R,5S)-2-(hydroxymethyl)-1-({4′-methoxy-[1,1′-biphenyl]-4-yl}methyl)piperidine-3,4,5-triol] | 44000 | 4570 | > 100000 | < 10 | < 10
5 | N#Cc1cc(NCc2cccc(CN3C[C@H](O)[C@@H](O)[C@H](O)[C@H]3CO)c2)cc(N2CCOCC2)c1 [Compound 1042, 3-(morpholin-4-yl)-5-{[(3-{[(2R,3R,4R,5S)-3,4,5-trihydroxy-2-(hydroxymethyl)piperidin-1-yl]methyl}phenyl)methyl]amino}benzonitrile] | 8680 | 1830 | > 100000 | 29 | 163
6 | OC[C@@H]1[C@@H](O)[C@H](O)[C@@H](O)CN1Cc1cnc(CNc2cc(-c3ncccn3)cc(C3CC3)c2)cn1 [Compound 1329, (2R,3R,4R,5S)-1-{[5-({[3-cyclopropyl-5-(pyrimidin-2-yl)phenyl]amino}methyl)pyrazin-2-yl]methyl}-2-(hydroxymethyl)piperidine-3,4,5-triol] | 2550 | 50 | 82900 | 548 | 675
7 | CS(C)=NS(=O)(=O)c1cc(-c2ncccn2)ccc1NCCCCCCN1C[C@H](O)[C@@H](O)[C@H](O)[C@H]1CO [Compound 1247, N-(dimethyl-2-sulfanylidene)-5-(pyrimidin-2-yl)-2-({6-[(2R,3R,4R,5S)-3,4,5-trihydroxy-2-(hydroxymethyl)piperidin-1-yl]hexyl}amino)benzene-1-sulfonamide] | 6 | 53 | 11800 | 18 | 216
8 | OC[C@@H]1[C@@H](O)[C@H](O)[C@@H](O)CN1CCCCCCNc1cc(Cl)cc(-c2ncco2)c1 [Compound 1211, (2R,3R,4R,5S)-1-(6-{[3-chloro-5-(1,3-oxazol-2-yl)phenyl]amino}hexyl)-2-(hydroxymethyl)piperidine-3,4,5-triol] | 2 | 16 | 326 | 1 | 72
9 | COc1ccc(C#CCCCCCN2C[C@H](O)[C@@H](O)[C@H](O)[C@H]2CO)cc1 [Compound 1338, (2R,3R,4R,5S)-2-(hydroxymethyl)-1-[7-(4-methoxyphenyl)hept-6-yn-1-yl]piperidine-3,4,5-triol] | 109 | 860 | 9440 | 146 | 371
10 | CN(Cc1cccc(CN2C[C@H](O)[C@@H](O)[C@H](O)[C@H]2CO)c1)c1ccc(CN2CCCO2)cc1[N+](=O)[O-] [Compound 1020] |  | 1160 | 76300 | 44 | 129
11 | COc1cc(-c2ncccn2)ccc1NCCCCCCN1C[C@H](O)[C@@H](O)[C@H](O)[C@H]1CO [Compound 1231, (2R,3R,4R,5S)-2-(hydroxymethyl)-1-(6-{[2-methoxy-4-(pyrimidin-2-yl)phenyl]amino}hexyl)piperidine-3,4,5-triol] | 30 | 91 | 2110 | 30 | 67
12 | Cc1nc(=O)c2cc(-c3ncccn3)ccc2n1CCCCCCN1C[C@H](O)[C@@H](O)[C@H](O)[C@H]1CO [Compound 1246, 2-methyl-6-(pyrimidin-2-yl)-1-{6-[(2R,3R,4R,5S)-3,4,5-trihydroxy-2-(hydroxymethyl)piperidin-1-yl]hexyl}-1,4-dihydroquinazolin-4-one] | 4 | 46 | 21600 | > 100000 | > 100000
13 | OC[C@@H]1[C@@H](O)[C@H](O)[C@@H](O)CN1Cc1cccc(CNc2cc(-c3ncccn3)cc(C3CC3)c2)n1 [Compound 1333, (2R,3R,4R,5S)-1-{[6-({[3-cyclopropyl-5-(pyrimidin-2-yl)phenyl]amino}methyl)pyridin-2-yl]methyl}-2-(hydroxymethyl)piperidine-3,4,5-triol] | > 100000 | 2180 | > 100000 | 846 | 1590
14 | Cc1cc(NCc2cccc(CN3C[C@H](O)[C@@H](O)[C@H](O)[C@H]3CO)n2)cc(N2CCOCC2)c1 [Compound 1336, (2R,3R,4R,5S)-2-(hydroxymethyl)-1-{[6-({[3-methyl-5-(morpholin-4-yl)phenyl]amino}methyl)pyridin-2-yl]methyl}piperidine-3,4,5-triol] | > 100000 | 10400 | > 100000 | 9990 | 21300
15 | Cc1cc(NCc2ccc(CN3C[C@H](O)[C@@H](O)[C@H](O)[C@H]3CO)cc2)cc(-c2ccco2)c1 [Compound 1317, (2R,3R,4R,5S)-1-{[4-({[3-(furan-2-yl)-5-methylphenyl]amino}methyl)phenyl]methyl}-2-(hydroxymethyl)piperidine-3,4,5-triol] | 1200 | 480 | 45100 | < 1 | < 1
16 | [N-]=[N+]=Nc1ccc(NCCN2CCN(CCN3C[C@H](O)[C@@H](O)[C@H](O)[C@H]3CO)CC2)c([N+](=O)[O-])c1 [Compound 1273, (2R,3R,4R,5S)-1-[2-(4-{2-[(4-azido-2-nitrophenyl)amino]ethyl}piperazin-1-yl)ethyl]-2-(hydroxymethyl)piperidine-3,4,5-triol] | 548 | 15600 | 2980 | 646 | 21600
17 | COc1ccc(-c2ccc(CCCN3C[C@H](O)[C@@H](O)[C@H](O)[C@H]3CO)cc2)cc1 [Compound 1305, (2R,3R,4R,5S)-2-(hydroxymethyl)-1-(3-{4′-methoxy-[1,1′-biphenyl]-4-yl}propyl)piperidine-3,4,5-triol] | < 1 | 498 | 7860 | < 10 | 1010
18 | OC[C@@H]1[C@@H](O)[C@H](O)[C@@H](O)CN1Cc1cccc(CNc2ccc(Br)cc2)c1 [Compound 1027, (2R,3R,4R,5S)-1-[(3-{[(4-bromophenyl)amino]methyl}phenyl)methyl]-2-(hydroxymethyl)piperidine-3,4,5-triol] | 23600 | 2830 | 75700 | 81 | 23
19 | Cc1cc(Br)cc(NCc2ccc(CN3C[C@H](O)[C@@H](O)[C@H](O)[C@H]3CO)cc2)c1 [Compound 1024, (2R,3R,4R,5S)-1-[(4-{[(3-bromo-5-methylphenyl)amino]methyl}phenyl)methyl]-2-(hydroxymethyl)piperidine-3,4,5-triol] |  | 221 | 21100 | 2 | 14
